Measured values taken from patent US9988381B2, “Five-member-heterocycle fused pyridine compounds, method of producing the same, and use thereof” (SHANGHAI INSTITUTE OF MATERIA MEDICA, CHINESE ACADEMY OF …, priority 2013, dated 2018).
Where two headings read alike, the source gives them in different places.

How the values were obtained:
[1] = molecular target: T1, c-Met kinase domain recombinant protein (Homo sapiens, UniProt P08581); assay: biochemical; details: for inhibition at 1 µM: read-out: Average inhibition rate at 1 μM (%); for inhibition at 10 µM: read-out: Average inhibition rate at 10 μM (%); for inhibition at 0.1 µM: read-out: Average inhibition rate at 0.1 μM (%)
T1 construct: 50 μL diluted solution of c-Met kinase domain recombinant protein in reaction buffer was added to initiate the reaction
T1 sequence (P08581 1078-1345 limits assumed): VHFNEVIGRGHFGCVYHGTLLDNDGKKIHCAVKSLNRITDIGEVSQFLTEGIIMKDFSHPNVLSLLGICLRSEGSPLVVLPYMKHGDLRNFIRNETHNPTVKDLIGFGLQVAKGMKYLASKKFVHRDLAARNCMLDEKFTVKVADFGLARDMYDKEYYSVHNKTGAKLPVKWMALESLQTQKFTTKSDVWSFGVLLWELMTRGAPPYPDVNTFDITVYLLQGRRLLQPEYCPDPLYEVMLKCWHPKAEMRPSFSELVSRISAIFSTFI
In short: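 IC50 came from a four-parameter fit of inhibition rates measured by anti-phosphotyrosine (PY99/HRP) ELISA at 490 nm. The reaction ran 1 hour at 37° C with 5 μM ATP, c-Met kinase domain protein and Poly(Glu,Tyr)4:1-coated wells, in HEPES pH 7.4 buffer containing MgCl2, MnCl2, Na3VO4 and DTT.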

[2] = molecular target: T1, c-Met kinase domain recombinant protein; assay: biochemical; details: read-out: Inhibition rate at 10 μM (%)
In short: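 Recombinant c-Met kinase domain phosphorylated immobilised Poly(Glu,Tyr)4:1 for 1 h at 37 °C in 50 mM HEPES pH 7.4, 50 mM MgCl2, 0.5 mM MnCl2, 0.2 mM Na3VO4, 1 mM DTT with ATP. Product measured by anti-phosphotyrosine PY99 ELISA (HRP, 490 nm), giving percent inhibition; ATP-free wells served as control.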

| Compound | inhibition at 1 µM [1] [%] | inhibition at 10 µM [1] [%] | inhibition at 10 µM [2] [%] | inhibition at 0.1 µM [1] [%] |
| --- | --- | --- | --- | --- |
| Cn1cc(-c2cnc3cnn(S(=O)(=O)c4cnc5ccc(-c6cccc(C(F)(F)F)c6)cn45)c3c2)cn1 [Example 83, 1-{[6-(3-trifluoromethylphenyl)-imidazo[1,2-a]pyridine]-3-sulfonyl}-6-[(1-methyl)-4-pyrazolyl]-1-H-pyrazolo[4,3-b]pyridine] | 44.4 | 77.7 | > 79.8 | – |
| Cn1cc(-c2cnc3cnn(S(=O)(=O)c4cnc5ccc(-c6ccccc6C(F)(F)F)cn45)c3c2)cn1 [Example 84, 1-{[6-(2-trifluoromethylphenyl)-imidazo[1,2-a]pyridine]-3-sulfonyl}-6-[(1-methyl)-4-pyrazolyl]-1-H-pyrazolo[4,3-b]pyridine] | 41.2 | 73.5 | > 71.5 | – |
| CN(C)c1ccc(-c2ccc3ncc(S(=O)(=O)n4ncc5ncc(-c6cnn(C)c6)cc54)n3c2)cc1 [Example 85, 1-{[6-(4-dimethylaminophenyl)-imidazo[1,2-a]pyridine]-3-sulfonyl}-6-[(1-methyl)-4-pyrazolyl]-1-H-pyrazolo[4,3-b]pyridine] | 30.1 | 79.4 | > 71.2 | – |
| Cn1cc(-c2cnc3cnn(S(=O)(=O)c4cnc5ccc(-c6cccc(F)c6)cn45)c3c2)cn1 [Example 86, 1-{[6-(3-fluorophenyl)-imidazo[1,2-a]pyridine]-3-sulfonyl}-6-[(1-methyl)-4-pyrazolyl]-1-H-pyrazolo[4,3-b]pyridine] | 66.6 | 77.8 | > 67.9 | 45 |
| Cn1cc(-c2cnc3cnn(S(=O)(=O)c4cnc5ccc(-c6ccc(F)cc6F)cn45)c3c2)cn1 [Example 87, 1-{[6-(2,4-difluorophenyl)-imidazo[1,2-a]pyridine]-3-sulfonyl}-6-[(1-methyl)-4-pyrazolyl]-1-H-pyrazolo[4,3-b]pyridine] | 72.7 | 72.5 | > 76.8 | 33.8 |
| Cn1cc(-c2cnc3cnn(S(=O)(=O)c4cnc5ccc(-c6cc(F)c(F)c(F)c6)cn45)c3c2)cn1 [Example 88, 1-{[6-(3,4,5-trifluorophenyl)-imidazo[1,2-a]pyridine]-3-sulfonyl}-6-[(1-methyl)-4-pyrazolyl]-1-H-pyrazolo[4,3-b]pyridine] | 59.4 | 64.5 | > 70.2 | 1.1 |
| Cn1cc(-c2cnc3cnn(S(=O)(=O)c4cnc5ccc(-c6ccc7c(c6)OCCO7)cn45)c3c2)cn1 [Example 93, 1-{[6-[6-(1,4-benzodioxanyl)]-imidazo[1,2-a]pyridine]-3-sulfonyl}-6-[(1-methyl)-4-pyrazolyl]-1-H-pyrazolo[4,3-b]pyridine] | 76.8 | 77.9 | > 64.5 | 76.1 |

The next lines start with the values.

| inhibition at 1 µM [1] [%] | inhibition at 10 µM [1] [%] | inhibition at 10 µM [2] [%] | inhibition at 0.1 µM [1] [%] | Compound |
| --- | --- | --- | --- | --- |
| 79.9 | 83.4 | > 71.7 | 45.3 | COc1ccc(-c2ccc3ncc(S(=O)(=O)n4ncc5ncc(-c6cnn(C)c6)cc54)n3c2)cc1 [Example 89, 1-{[6-(4-methoxyphenyl)-imidazo[1,2-a]pyridine]-3-sulfonyl}-6-[(1-methyl)-4-pyrazolyl]-1-H-pyrazolo[4,3-b]pyridine] |
| 79.1 | 78.9 | > 71.9 | 82.8 | Cn1cc(-c2cnc3cnn(S(=O)(=O)c4cnc5ccc(-c6ccc(C#N)cc6)cn45)c3c2)cn1 [Example 92, 1-{[6-(4-cyanophenyl)-imidazo[1,2-a]pyridine]-3-sulfonyl}-6-[(1-methyl)-4-pyrazolyl]-1-H-pyrazolo[4,3-b]pyridine] |
| 55.7 | 83.9 | > 74.3 | 72.1 | Cn1cc(-c2cnc3cnn(S(=O)(=O)c4cnc5ccc(-c6ccc(Cl)cc6)cn45)c3c2)cn1 [Example 94, 1-{[6-(4-chlorophenyl)-imidazo[1,2-a]pyridine]-3-sulfonyl}-6-[(1-methyl)-4-pyrazolyl]-1-H-pyrazolo[4,3-b]pyridine] |
